Assay results reported in patent publication US10238676B2, “Application of ginsenoside RG3 in preparing medicine for preventing and/or treating dementia, and medicine for treating dementia” (priority 2013, dated 2019).

Experiments:
[1] = test system: patients with Alzheimer's disease; assay: Revised Hasegawa dementia scale (HDS-R) scoring of patients with Alzheimer's disease; type: in vivo, human
Method: (§1) Both groups take medicine for 12 continuous weeks. 2 ml of cerebrospinal fluid is collected by lumbar puncture, and is stored at −80° C., the β-amyloid protein (Aβ) content is determined by using enzyme-linked immunosorbent assay (ELISA). A revised Hasegawa dementia scale (HDS-R) is used to score, and the scores before and after treatment are compared, increasing in scores means validness, and unchanging or decreasing in scores means invalidness. The enumeration data adopts χ^2 test, the comparison of measurement data adopts t-test, all data is processed by adopting SPSS12.0 statistical software.
Analysis on the clinical therapeutic effect of the two groups.

β-amyloid protein (Aβ) = assay: Cerebrospinal fluid β-amyloid protein content (ELISA) of patients with Alzheimer's disease; type: in vivo, human; conditions: AD inpatients
Method: as §1, with “2” for “Both groups take medicine for 12 continuous weeks. 2”

[2] = test system: rat model with Alzheimer's disease; assay: Channel-type water maze test, learning and memory of rat model with Alzheimer's disease; type: in vivo, Wistar rats; conditions: AD model rats
Method: Water maze pre-training is performed after feeding for 1 week under the stable condition of laboratory, 60 rats with similar body weights and good flexibility are selected, and are divided into 6 groups randomly, a normal control group, a sham operated control group, a model control group, and high-dose, medium-dose and low-dose ginsenoside Rg3 groups (10, 5, 2.5 mg/kg/d), wherein each group has 10 animals.
The molding method applying intraperitoneal injection of 0.96% D-galactose prepared by normal saline is applied to rats to make model rat, 5 mL/kg, once daily for 6 continuous weeks. The rat of sham operated control group are injected with equivalent normal saline. The rat groups of the model control group and high-dose, medium-dose and low-dose ginsenoside Rg3 groups are intracranially injected with IBO starting from the 43th day, and each side is slowly injected with 1 μL of IBO, the sham operated group's rats are injected with equivalent normal saline in the same encephalic region (for 4 continuous weeks). The normal control group's rat are without any processing and eat and drink normally. The rats of high-dose, medium-dose and low-dose ginsenoside Rg3 groups are administered intragastrically with ginsenoside Rg3 oral emulsion daily while molding, and are administered for 4 w (weeks) after molding.
The changes of animal behavioristics in each group are tested by channel-type water maze test, and the learning and memory abilities of rats are evaluated by number of entering blind ends and the time needed to reach the terminal. All test results are expressed in mean±standard deviation, and the intergroup difference is subjected to variance analysis by adopting SPSS10.0 statistical package.

[3] = test system: intracerebral cholinergic nerve system of rat model with Alzheimer's disease; assay: AChE positive nerve fiber density of cortex and hippocampal formation, rat model with Alzheimer's disease (D-galactose + IBO); type: in vivo, Wistar rats; conditions: AD model rats, 6 weeks; for N Frontal lobe AchE positive nerve fiber density: Rg3 lotion (embodiment 7) on both sides of nose; for N Entorhinal cortex AchE positive nerve fiber density / N Occipital lobe AchE positive nerve fiber density / Parietal lobe AchE positive nerve fiber density / N Stratum lacunosum-moleculare AchE positive nerve fiber density / N Stratum moleculare of dentate gyrus AchE positive nerve fiber density / N Stratum oriens AchE positive nerve fiber density / N Stratum radiatum AchE positive nerve fiber density: Rg3 lotion topical; for N Stratum lacunosum-moleculare AchE positive nerve fiber density / N Stratum moleculare of dentate gyrus AchE positive nerve fiber density / N Stratum oriens AchE positive nerve fiber density / N Stratum radiatum AchE positive nerve fiber density: hippocampal formation
From the text: 60 Wistar rats each of which having the body weight of 300-500 g are randomly divided into 6 groups, with 10 in each group, and the groups are named a preliminary elder normal control group, a preliminary elder AD model group, a positive medicine Huperzine A group, and high-dose, medium-dose and low-dose of Ginsenoside Rg3 topical preparation groups according to different treatment methods, respectively. The rats are bred in separate cages, each holding 4-5 rats, with natural lighting and random drinking and feeding provided. Physiological saline is injected in the abdominal cavity and grain of each rat in the preliminary elder normal control group; Galactose intraperitoneal injection and IBO intracerebral injection are given to all rats in the preliminary elder AD model group, the positive medicine Huperzine A group, and the high-dose, medium-dose and low-dose Ginsenoside Rg3 topical preparation groups; while the rats in the Huperzine A group and the high-dose, medium-dose and low-dose of Ginsenoside Rg3 topical preparation groups are subjected to D-galactose injection for modeling, rat of each group is given Huperzine A 0.3 mg/kg/d and Ginsenoside Rg3 10, 5, 2.5 mg/kg/d respectively. Ginsenoside Rg3 is applied to both sides of the nose of each rat of Ginsenoside Rg3 topical preparation groups. All the rats are subjected to the medicines continuously for 6 weeks and then intracerebral bilateral Meynert nuclei injection is carried out. Reference is made to a rat cerebral stereotaxic atlas for Meynert nuclei localization, and localization coordinates are AP-0.8 mm, Late 2.6 mm and DV 8.2 mm During intracerebral injection, a rat is anesthetized with 3% pentobarbital sodium (30 mg/kg) and then immobilized to a cerebral stereotaxic apparatus, physiological saline dissolved IBO (injection 1 μl for each side containing 5 μg of IBO) or 1 μl normal saline is injected slowly into a Meynert nucleus, each side takes injection for 5 minutes, and needle retaining for 10 minutes, wherein all the rats are subjected to cerebral perfusion with 4% paraformaldehyde after modeling and are then immobilized for 24 hours, and the brain is put in a sucrose phosphate buffer until brain tissue blocks sink, the blocks are frozen in a incubator and serially sectioned to […] in thickness. The sections are subjected to acetycholinesterase (AChE) histochemical staining by methods recommended by Hedreen, et al. Observation is given to the frontal lobe, the parietal lobe, the occipital lobe and the entorhinal cortex (layer II) as well as parts in a hippocampal CA1 region of the hippocampal formation such as a stratum oriens, a stratum radiatum, a stratum lacunosum-moleculare and a stratum moleculare of dentate gyrus for observing their AChE positive nerve fiber densities, and the AChE positive nerve fiber densities are counted with a number of intersections of positive fibers with a standard grid by using a micrometer used for a microscope.
A significance level a is equal to 0.05.

[4] = of 18 patients per group, 12 weeks
[5] = Rg3 oral emulsion (embodiment 17) intragastric, 10 mg/kg/d
[6] = Rg3 oral emulsion intragastric, 2.5 mg/kg/d
[7] = Rg3 oral emulsion intragastric, 5 mg/kg/d

CC(C)=CCC[C@](C)(O)[C@H]1CC[C@]2(C)[C@@H]1[C@H](O)C[C@@H]1[C@@]3(C)CC[C@H](O[C@@H]4O[C@H](CO)[C@@H](O)[C@H](O)[C@H]4O[C@@H]4O[C@H](CO)[C@@H](O)[C@H](O)[C@H]4O)C(C)(C)[C@@H]3CC[C@]12C [Ginsenoside Rg3, 20(R)-ginsenoside Rg3]
effective rate (patients increased in HDS-R scores) ([1]; 18 AD patients per group, Rg3 oral liquid 10 mg/d or donepezil 5 mg/d, 12 weeks): 77.8%
Scores of clinical symptom (HDS-R), post treatment ([1]; AD inpatients, n = 18, Rg3 oral liquid 10 mg/d or donepezil 5 mg/d orally, 12 weeks): 18.7 ± 8.1^#Δ
Scores of clinical symptom (HDS-R), before treatment ([1]; AD inpatients, n = 18 per group, baseline): 12.3 ± 5.2
number of patients constant in scores [1, 4]: 3
number of patients decreased in scores [1, 4]: 1
number of patients increased in scores of clinical symptom [1, 4]: 14
Aβ content in cerebrospinal fluid, post treatment (β-amyloid protein (Aβ); n = 18, Rg3 oral liquid 10 mg/d or donepezil 5 mg/d orally, 12 weeks): 3.8 ± 1.5
Aβ content in cerebrospinal fluid, before treatment (β-amyloid protein (Aβ); n = 18 per group, baseline): 5.9 ± 2.6
Error times [2, 5]: 1.01 ± 0.41 time
Swimming out time [2, 5]: 12.26 ± 3.26 s
Error times [2, 6]: 1.82 ± 0.43 time
Swimming out time [2, 6]: 32.26 ± 3.21 s
Error times [2, 7]: 1.10 ± 0.44 time
Swimming out time [2, 7]: 19.26 ± 3.23 s
N Frontal lobe AchE positive nerve fiber density ([3]; 2.5 mg/kg/d): 122.7 ± 18.6^Δ 10^2 · mm^−2
N Frontal lobe AchE positive nerve fiber density ([3]; 5 mg/kg/d): 130.7 ± 20.8^Δ 10^2 · mm^−2
N Frontal lobe AchE positive nerve fiber density ([3]; 10 mg/kg/d): 143.7 ± 22.1^Δ 10^2 · mm^−2
N Entorhinal cortex AchE positive nerve fiber density ([3]; 2.5 mg/kg/d): 130.2 ± 15.6 10^2 · mm^−2
N Occipital lobe AchE positive nerve fiber density ([3]; 2.5 mg/kg/d): 145.2 ± 9.2^ΔΔ** 10^2 · mm^−2
Parietal lobe AchE positive nerve fiber density ([3]; 2.5 mg/kg/d): 162.9 ± 22.0^#** 10^2 · mm^−2
N Entorhinal cortex AchE positive nerve fiber density ([3]; 5 mg/kg/d): 142.6 ± 11.9 10^2 · mm^−2
N Occipital lobe AchE positive nerve fiber density ([3]; 5 mg/kg/d): 160.2 ± 10.2^ΔΔ** 10^2 · mm^−2
Parietal lobe AchE positive nerve fiber density ([3]; 5 mg/kg/d): 170.9 ± 21.2^#** 10^2 · mm^−2
N Entorhinal cortex AchE positive nerve fiber density ([3]; 10 mg/kg/d): 161.1 ± 18.3^ΔΔ**° 10^2 · mm^−2
N Occipital lobe AchE positive nerve fiber density ([3]; 10 mg/kg/d): 167.2 ± 12.9^ΔΔ**° 10^2 · mm^−2
Parietal lobe AchE positive nerve fiber density ([3]; 10 mg/kg/d): 183.9 ± 24.9^#**° 10^2 · mm^−2
N Stratum lacunosum-moleculare AchE positive nerve fiber density ([3]; 2.5 mg/kg/d): 77.2 ± 9.1^ΔΔ** 10^2 · mm^−2
N Stratum moleculare of dentate gyrus AchE positive nerve fiber density ([3]; 2.5 mg/kg/d): 119.8 ± 12.4 10^2 · mm^−2
N Stratum oriens AchE positive nerve fiber density ([3]; 2.5 mg/kg/d): 140.1 ± 20.5^Δ 10^2 · mm^−2
N Stratum radiatum AchE positive nerve fiber density ([3]; 2.5 mg/kg/d): 122.4 ± 14.4^#** 10^2 · mm^−2
N Stratum lacunosum-moleculare AchE positive nerve fiber density ([3]; 5 mg/kg/d): 84.2 ± 10.9^ΔΔ** 10^2 · mm^−2
N Stratum moleculare of dentate gyrus AchE positive nerve fiber density ([3]; 5 mg/kg/d): 131.5 ± 14.7 10^2 · mm^−2
N Stratum oriens AchE positive nerve fiber density ([3]; 5 mg/kg/d): 153.0 ± 22.1^Δ 10^2 · mm^−2
N Stratum radiatum AchE positive nerve fiber density ([3]; 5 mg/kg/d): 135.1 ± 23.9^#** 10^2 · mm^−2
N Stratum lacunosum-moleculare AchE positive nerve fiber density ([3]; 10 mg/kg/d): 99.2 ± 17.3^Δ 10^2 · mm^−2
N Stratum moleculare of dentate gyrus AchE positive nerve fiber density ([3]; 10 mg/kg/d): 142.7 ± 11.9 10^2 · mm^−2
N Stratum oriens AchE positive nerve fiber density ([3]; 10 mg/kg/d): 171.1 ± 16.9^Δ 10^2 · mm^−2
N Stratum radiatum AchE positive nerve fiber density ([3]; 10 mg/kg/d): 143.2 ± 20.5^ΔΔ 10^2 · mm^−2
